The record followed here is ChEMBL document CHEMBL5380866, “Discovery of Selective P2Y6R Antagonists with High Affinity and In Vivo Efficacy for Inflammatory Disease Therapy” (J Med Chem, 2023).

Activity calls are given as the source filed them. No cut-off for these calls is given here.

The target in one assay is P2Y purinoceptor 12 (Homo sapiens, UniProt Q9H244). Put plainly: Antagonist activity at human P2Y12R expressed in HEK293 cells assessed as inhibition of MeSADP-induced cAMP production preincubated for 0.5 hrs followed by MeSADP stimulation by cAMP-glo analysis.
Sequence of P2Y purinoceptor 12 (Q9H244 whole entry): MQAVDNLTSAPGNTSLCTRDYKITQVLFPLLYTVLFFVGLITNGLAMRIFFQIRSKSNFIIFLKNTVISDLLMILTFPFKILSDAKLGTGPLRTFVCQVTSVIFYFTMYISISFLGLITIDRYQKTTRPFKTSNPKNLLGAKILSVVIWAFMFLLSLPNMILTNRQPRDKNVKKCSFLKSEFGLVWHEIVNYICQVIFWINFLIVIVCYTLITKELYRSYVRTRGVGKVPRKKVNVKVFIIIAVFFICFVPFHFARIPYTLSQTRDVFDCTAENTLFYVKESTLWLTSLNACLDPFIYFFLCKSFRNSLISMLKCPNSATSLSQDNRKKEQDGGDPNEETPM
Details: not given
Format: functional, cell-based.
`CCCSc1nc(N[C@@H]2C[C@H]2c2ccc(F)c(F)c2)c2nnn([C@@H]3C[C@H](OCCO)[C@@H](O)[C@H]3O)c2n1` [TICAGRELOR]: the IC50 stood at 1400 nM.

For a further assay, the target named is T1, P2Y purinoceptor 6 (Homo sapiens, UniProt Q15077). In words: Antagonist activity at P2Y6R (unknown origin).
T1 sequence (Q15077 whole entry): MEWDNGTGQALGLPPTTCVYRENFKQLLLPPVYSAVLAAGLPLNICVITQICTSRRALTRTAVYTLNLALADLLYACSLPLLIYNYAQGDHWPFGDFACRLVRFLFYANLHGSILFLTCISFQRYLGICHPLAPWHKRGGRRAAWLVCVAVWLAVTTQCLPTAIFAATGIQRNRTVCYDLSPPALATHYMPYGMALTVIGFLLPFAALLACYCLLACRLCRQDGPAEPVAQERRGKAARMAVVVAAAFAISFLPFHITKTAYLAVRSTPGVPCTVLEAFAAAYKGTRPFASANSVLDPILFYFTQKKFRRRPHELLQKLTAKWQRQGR
Details: not given
In the case of `O=S(=O)(O)c1cc(N=C=S)ccc1/C=C/c1ccc(N=C=S)cc1S(=O)(=O)O`, the IC50 amounted to 5.2 µM.

Another assay addresses T2, P2Y purinoceptor 14 (Homo sapiens, UniProt Q15391).
T2 sequence (Q15391 whole entry): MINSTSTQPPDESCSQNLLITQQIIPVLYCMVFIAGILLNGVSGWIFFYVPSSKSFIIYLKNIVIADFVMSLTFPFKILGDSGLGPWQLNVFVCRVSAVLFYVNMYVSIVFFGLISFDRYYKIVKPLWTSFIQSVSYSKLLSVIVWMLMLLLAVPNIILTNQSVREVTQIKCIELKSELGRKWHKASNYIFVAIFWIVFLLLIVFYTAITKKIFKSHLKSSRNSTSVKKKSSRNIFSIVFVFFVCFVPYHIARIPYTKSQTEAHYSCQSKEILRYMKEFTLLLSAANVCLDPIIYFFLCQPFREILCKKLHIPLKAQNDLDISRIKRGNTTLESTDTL
Put plainly: Antagonist activity at human P2Y14R expressed in HEK293 cells assessed as inhibition of UDPG-induced cAMP production preincubated for 0.5 hrs followed by UDPG stimulation by cAMP-glo analysis. It counts as functional, cell-based.
Details: not given
Take `O=C(O)c1cc(-c2ccccc2C2CCNCC2)c2ccc(-c3ccc(C(F)(F)F)cc3)cc2c1`: the IC50 came to 5.21 µM.

Another assay deals with T1, P2Y purinoceptor 6. In words: Binding affinity to human recombinant P2Y6R expressed in HEK293 cells at 500 uM pretreated for 1 hrs followed by pulldown using streptavidin agarose resin by Western blot analysis. The settings on record: filed as antagonist. Format: cell-based.
As to `CC(C)(C)n1nc(-c2nc3cc(C(=O)NCCOCCOCCOCCNC(=O)CCCC[C@@H]4SC[C@@H]5NC(=O)N[C@@H]54)ccc3[nH]2)cc1-c1ccco1`, the outcome was Active.

In another assay the target is T1, P2Y purinoceptor 6. In words: Antagonist activity at human P2Y6R expressed in HEK293 cells assessed as inhibition of UDP-induced IP3 production preincubated for 0.5 hrs followed by UDP stimulation and measured after 12 hrs by ELISA analysis. Format: functional, cell-based.
Details: not given
With `Cc1ccc2[nH]c(-c3cc(-c4ccccc4)n(C(C)(C)C)n3)nc2c1`, the IC50 worked out at 77.8 nM. Take `Cc1ccc2oc(-c3cc(-c4ccco4)n(C(C)(C)C)n3)nc2c1`: the concentration for half-maximal inhibition (IC50) stood at 202 nM. The same measure, in the same setting: as for `CC(C)n1nc(-c2nc3ccccc3s2)cc1-c1ccccc1`, the figure is 87.8 nM; as for `CC(C)(C)n1nc(-c2nc3cc([N+](=O)[O-])ccc3[nH]2)cc1-c1ccco1`, 12.6 nM; as for `CC(C)(C)n1nc(-c2nc3c(Cl)cccc3[nH]2)cc1-c1ccco1`, 93.5 nM. Still for that read-out and setting: as for `CC(C)(C)n1nc(-c2nc3ccccc3s2)cc1-c1ccccc1`, the figure is 314 nM; as for `CC(C)(C)n1nc(-c2nc3cc(C(F)(F)F)ccc3[nH]2)cc1-c1ccco1`, 15.2 nM; as for `CC(C)(C)n1nc(-c2nc3ccccc3[nH]2)cc1-c1ccco1`, 159 nM. Same read-out and setting: as for `Cc1ccc2cc(C3CC(c4ccco4)=NN3C(=O)CCC(=O)O)c(Cl)nc2c1` (stereo unspecified), the figure is 126 nM. Regarding `CC(C)(C)n1nc(-c2nc3ccccc3o2)cc1-c1ccco1`, the IC50 amounted to 30.8 nM. `CC(C)(C)n1nc(-c2nc3ccccc3[nH]2)cc1-c1ccccc1`: the IC50 is 49.2 nM. On the same count and under the same terms, as for `CC(C)(C)n1nc(-c2nc3cc(F)ccc3[nH]2)cc1-c1ccco1`, the figure is 64.1 nM; as for `CC(C)(C)n1nc(-c2nc3cc(Br)ccc3[nH]2)cc1-c1ccco1`, 45.7 nM. The same measure, in the same setting: with `CC(C)(C)n1nc(-c2nc3cc(Cl)ccc3[nH]2)cc1-c1ccccc1` the figure was 216 nM; with `S=C=Nc1cccc(NC(=S)NCCCCNC(=S)Nc2cccc(N=C=S)c2)c1`, 27.5 nM; with `Cc1ccc2nc(-c3cc(-c4ccco4)n(C(C)(C)C)n3)oc2c1`, 72.9 nM.

Take `Cc1ccc2oc(-c3cc(-c4ccc[nH]4)n(C(C)(C)C)n3)nc2c1`: the IC50 was determined as 256 nM. The same measure, in the same setting: with `Cc1cccc2oc(-c3cc(-c4ccco4)n(C(C)(C)C)n3)nc12` the figure was 94.2 nM; with `Cc1ccc2nc(-c3cc(-c4ccccc4)n(C(C)(C)C)n3)oc2c1`, 42.5 nM; with `CC(C)(C)n1nc(-c2nc3cc(OC(F)(F)F)ccc3[nH]2)cc1-c1ccco1`, 128 nM. `CC(C)(C)n1nc(-c2nc3ccccc3o2)cc1-c1ccccc1`: the IC50 was 173 nM. As to `O=C(O)CCC(=O)N1N=C(c2nc3cc(Cl)ccc3[nH]2)CC1c1ccco1` (stereo unspecified), the IC50 stood at 457 nM.
